# From patent publication US12180509B2, “Methods for reprograming non-pluripotent cells into pluripotent stem cells” (Beihao Stem Cell and Regenerative Medicine Research …, priority 2015, dated 2024)
# Counter-ions that a name gives are not always drawn.
# Columns and labels:
# Assay type in all cases: cell-based, mouse
# MEFs from OG mice [1] = assay: Screen for small molecules that facilitate late reprogramming (DOX-inducible Oct4 plus VC6T); conditions: VC6T plus DOX-induced Oct4 for the first 4-8 days
# Description: To identify small molecules that facilitate late reprogramming, a doxycycline (DOX)-inducible Oct4 expression screening system was used (Li, et al., Cell Res. 21:196-204 (2011)).
# MEFs from OG mice were plated as described above and infected with Fu-tet-hOct4 and FUdeltaGW-rtTA lentiviruses. The induction protocol was carried out as described above.
# After infection, the culture medium was replaced with LIF-free ESC culture medium containing VC6T (VPA, CHIR99021, 616452, Tranylcypromine) plus DOX (1 μg/ml). Alternatively, MEFs harboring DOX-inducible Oct4 from Tet-On POUSF1 mouse strain B6; 129-Gt (ROSA)26Sor^tm1(TrtTA*M2)Jae Colla1^tm2(tetO-Pou5f1)Jae/J were used in this screen (Li, et al., Cell Res., 21:196-204 (2011)). These two DOX-inducible systems were only used in this screen, but not in complete chemical reprogramming. Individual chemicals from small-molecule libraries were added to each well. Small molecules were added at different culture time points. 5-aza-C(5-Azacytidine) and DZNep were added from day 8. The medium and chemicals were changed every 4 days; DOX was added only for the first 4-8 days. Chemical treatments were continued for 16-24 days or until GFP-positive colonies appeared. Primary hits were selected for further confirmation and optimization. CiPSC colonies were counted on day 44. […]
# MEFs = assay: CiPSC induction from MEFs with small-molecule combinations (no XEN priming); conditions: for replacement of DZNep in CiPSC generation: SAH hydrolase inhibitor in combination with VC6TF
# Description: The initial cells (MEFs, MNFs, MAFs or ADSCs) were seeded at a density of 50,000 cells per well of a 6-well plate or 300,000 cells per 100 mm dish. On the next day (day 0), the original medium was replaced with chemical reprogramming medium containing the small-molecule combinations. The small-molecule combinations-containing medium was changed every 4 days. On day 12, these cells were washed in PBS and digested with 0.25% Trypsin-EDTA (Invitrogen) at 37° C. for 3-5 min. After neutralization, the cell clumps were dissociated into single cells by thorough pipetting. The cells were harvested (300,000-1,000,000 cells per well of a 6-well plate) and replated at a density of 300,000-500,000 cells per well of a 6-well plate in the chemical reprogramming medium containing the small-molecule combinations. DZNep was added to the cell cultures on day 16 or day 20. On day 28-36, the small-molecule combinations including DZNep were removed. Meanwhile, the chemical reprogramming medium was replaced with 2i-medium. After another 8-12 days, 2i-competent, ESC-like and GFP-positive colonies were counted as primary CiPSC colonies. For CiPSC induction from wild-type cells without OG reporter, 2i-competent and ESC-like colonies were counted as primary CiPSC colonies. These CiPSC colonies were picked up for expansion and characterization. Alternatively, CiPSCs could be induced without replating on day 12.
# [2] = tested on: pluripotency-related genes and XEN marker genes; assay: Real-time PCR of pluripotency, XEN and MET genes during chemical reprogramming; conditions: for expression of XEN marker genes (Sall4, Gata4, Sox17): stage 1, fibroblasts to XEN-like cells; for endogenous expression of Sall4 and Sox2 on withdrawal of the chemical: chemicals withdrawn from VC6TF, after 12 days
# Description: Total RNA from an entire well of cultured cells was isolated using the RNeasy Plus MiniKit (QIAGEN). For a single colony, RNA was isolated using the RNeasy Micro Kit (QIAGEN). RNA was converted to cDNA using TransScript First-Strand cDNA Synthesis SuperMix (TransGen Biotech). PCR was carried out using Power SYBRR Green PCR Master Mix (Applied Biosystems) and performed on an ABI Prism 7300 Sequence Detection System. The data were analyzed using the delta-delta Ct method.
# MEFs from OG mice [3] = assay: Screen for chemical substitutes of Oct4 in OG-MEFs infected with Sox2, Klf4 and c-Myc; conditions: OG-MEFs with viral expression of Sox2, Klf4 and c-Myc, no Oct4
# Description: To identify chemical substitutes of Oct4, MEFs from OG mice were plated at a density of 20,000 cells per well of a 12-well plate and infected with lentiviruses encoding Sox2, Klf4 and c-Myc. After infection, the medium was replaced with LIF-free ESC culture medium. Individual chemicals from small-molecule libraries were added to each well. The medium and chemicals were changed every 4 days. Chemical treatments were continued for 14-20 days or until GFP-positive colonies appeared. Primary hits were selected for further confirmation and optimization.
# Small molecules that enable reprogramming in the absence of Oct4 were searched using Oct4 promoter-driven green fluorescent protein (GFP) expression (OG) mouse embryonic fibroblasts (MEFs), with viral expression of Sox2, Klf4, and c-Myc.
# cAMP = assay: Intracellular cAMP quantification (Direct cAMP ELISA); conditions: MEF, FSK 10 μM versus DMSO control
# Description: (§1) CAMP was quantified using the Direct cAMP ELISA Kit (Enzo) according to the manufacturer's protocol. For SAM and SAH quantification, cultured cells (1,000,000 cells) were trypsinized and homogenized by ultrasonication in 200 μl PBS. Then 40 μl of 400 mg/ml TCA was added. Cell extracts were incubated on ice for 30 min. After centrifugation at 4° C. (13,000 rpm, 15 min), the supernatants were filtered through a 0.22 μm filter and analyzed by high-performance liquid chromatography (HPLC, Shimadzu) with HILIC columns (Waters).
# The effect of inhibiting adenylate cyclase on the number of colonies generated by VC6TFZ was tested. […] The effect of replacing FSK with the cAMP analog (DBcAMP), alone or in combination with phosphodiesterase inhibitors, IBMX, or the phosphodiesterase inhibitor, rolipram and IBMX, on cell reprograming was also tested. Both DBcAMP and IBMX were used at 50 μM in the combination treatment.
# [4] = tested on: intracellular levels SAH to SAM; assay: SAM and SAH quantification by HPLC; conditions: during chemical reprogramming, relative to MEFs
# Description: as §1
# Oct4 promoter = assay: DNA methylation (bisulfite sequencing) and H3K9 methylation (ChIP) at the Oct4 promoter; conditions: presence versus absence of DZNep, day 32
# Description: Genomic DNA was modified by bisulfite treatment and purified using the MethylCode™ Bisulfite Conversion Kit (Invitrogen) according to the manufacturer's protocol. The amplified fragments were cloned into the pEASY-blunt Vector (Transgene). Ten randomly picked clones from each sample were sequenced. ChIP was performed using the EZ-Magna ChIP A/G Kit (Millipore) according to the manufacturer's protocol. Anti-H3K27me3 (Abcam, ab6002), anti-H3K9me2 (Millipore, 07-441), anti-H3K4me3 (Abcam, ab8580) and anti-H3K9ac (Abcam, ab4441) antibodies were used. Following immunoprecipitation, DNA was analyzed by real-time PCR.
compound,measurement,setting,value
CCCCC[C@H](O)/C=C/[C@H]1[C@H](O)CC(=O)[C@@H]1C/C=C\CCCC(=O)O [Prostaglandin E2],small molecule hit facilitating late reprogramming,MEFs from OG mice [1],identified in this screen
"Nc1ncnc2c1ncn2C(C=O)OC(C=O)CO (centres unmarked) [Adox, Adenosine, periodate oxidized]",replacement of DZNep in CiPSC generation,MEFs,useful in replacing DZNep in reprogramming
"CC1(C)CCC(C)(C)c2cc(C(=O)Nc3ccc(C(=O)O)cc3)ccc21 [AM580, 4-[(5,6,7,8-Tetrahydro-5,5,8,8-tetramethyl-2-naphthalenyl)carboxamido]benzoic acid]","expression of XEN marker genes (Sall4, Gata4, Sox17)",[2],promote the expression of XEN marker genes
"Cc1cccc(-c2n[nH]cc2-c2ccc3ncccc3n2)n1 [compound 616452, 2-(3-(6-Methylpyridin-2-yl)-1H-pyrazol-4-yl)-1,5-naphthyridine]",endogenous expression of Sall4 and Sox2 on withdrawal of the chemical,[2],essential in activating the endogenous expression of Sall4 and Sox2
"NC(=O)c1ccc(-c2nc(-c3ccc4c(c3)OCCO4)c(-c3ccccn3)[nH]2)cc1 [D4476, 4-[4-(2,3-Dihydro-1,4-benzodioxin-6-yl)-5-(2-pyridinyl)-1H-imidazol-2-yl]benzamide]",chemical substitute for Oct4 (iPSC induction),MEFs from OG mice [3],identified as chemical “substitutes” for Oct4
"Cc1[nH]c2ccc(O)cc2c1CCN [2-Me-5HT, 2-Methyl-5-hydroxytryptamine hydrochloride]",chemical substitute for Oct4 (iPSC induction),MEFs from OG mice [3],identified as chemical “substitutes” for Oct4
"C[C@H]1O[C@@H](n2cnc3c(N)ncnc32)C[C@@H]1O [2′5′ddAdo, 2′,5′-Dideoxyadenosine]",number of colonies formed by VC6TFZ,MEFs; inhibition of adenylate cyclase during VC6TFZ treatment,decreased the number of colonies
Nc1ncn([C@@H]2O[C@H](CO)[C@@H](O)[C@H]2O)c(=O)n1 [5-Azacytidine],small molecule hit facilitating late reprogramming,MEFs from OG mice [1],identified in this screen
"Cc1cnc(-c2cnc(NCCNc3ccc(C#N)cn3)nc2-c2ccc(Cl)cc2Cl)[nH]1 [CHIR99021, 6-[[2-[[4-(2,4-Dichlorophenyl)-5-(5-methyl-1H-imidazol-2-yl)-2-pyrimidinyl]amino]ethyl]amino]-3-pyridinecarbonitrile]",endogenous expression of Sall4 and Sox2 on withdrawal of the chemical,[2],essential in activating the endogenous expression of Sall4 and Sox2
same,"increase in the expression of Gata4, Sox17 and EpCAM","[2]; increased concentration of CHIR99021 (20 μM versus 10 μM) in VC6TF, 12 days",up to 10 fold
"CCCC(=O)[O-].[Na+] [sodium butyrate, Sodium butyrate]",small molecule hit facilitating late reprogramming,MEFs from OG mice [1],identified in this screen
"Nc1nccc2c1ncn2[C@@H]1O[C@H](CO)[C@@H](O)[C@H]1O [DZA, 3-Deazaadenosine]",replacement of DZNep in CiPSC generation,MEFs,useful in replacing DZNep in reprogramming
"C/C(=C\c1ccc(C(=O)O)cc1)c1ccc2c(c1)C(C)(C)CCC2(C)C [TTNPB, 4-[(E)-2-(5,6,7,8-Tetrahydro-5,5,8,8-tetramethyl-2-naphthalenyl)-1-propenyl]benzoic acid]","chemical reprogramming efficiency enhanced, factor",MEFs; TTNPB as booster added to the chemical cocktail (C6FZ or VC6TFZ) in MEFs,≤ 40
same,reprogramming frequency,"MEFs; with TTNPB, comparable to transcription factor-induced reprogramming",up to 0.2%
C=C[C@@]1(C)CC(=O)[C@]2(O)[C@@]3(C)[C@@H](O)CCC(C)(C)[C@@H]3[C@H](O)[C@H](OC(C)=O)[C@@]2(C)O1 [Forskolin],chemical substitute for Oct4 (iPSC induction),MEFs from OG mice [3],identified as chemical “substitutes” for Oct4
same,small molecule hit facilitating late reprogramming,MEFs from OG mice [1],identified in this screen
same,intracellular cAMP level,cAMP,significantly elevates the CAMP level
same,endogenous expression of Sall4 and Sox2 on withdrawal of the chemical,[2],essential in activating the endogenous expression of Sall4 and Sox2
COc1ccc(C2CNC(=O)C2)cc1OC1CCCC1 (centres unmarked) [Rolipram],small molecule hit facilitating late reprogramming,MEFs from OG mice [1],identified in this screen
"Nc1nccc2c1ncn2[C@@H]1C=C(CO)[C@@H](O)[C@H]1O [DZNep, 3-deazaneplanocin A]",concentration ratio of SAH to SAM,[4],elevates the concentration ratio of SAH to S-adenosylmethionine (SAM)
same,small molecule hit facilitating late reprogramming,MEFs from OG mice [1],identified in this screen
same,Oct4 expression,[2]; after addition of DZNep in the late phase of chemical reprogramming,enhanced significantly
same,DNA methylation and H3K9 methylation at the Oct4 promoter,Oct4 promoter,significantly decreased
O=C(O)[C@@H](Cc1c[nH]c2ccccc12)N1C(=O)C2=CCCC=C2C1=O [RG108],small molecule hit facilitating late reprogramming,MEFs from OG mice [1],identified in this screen
"Nc1ncnc2c1ncn2[C@@H]1C=C(CO)[C@@H](O)[C@H]1O [NEPA, (−)-Neplanocin A]",replacement of DZNep in CiPSC generation,MEFs,useful in replacing DZNep in reprogramming
"CC(C)N(CCCNC(=O)Nc1ccc(C(C)(C)C)cc1)C[C@H]1O[C@@H](n2ccc3c(N)ncnc32)[C@H](O)[C@@H]1O [EPZ004777, 1-(3-((((2R,3S,4R,5R)-5-(4-amino-7H-pyrrolo[2,3-d]pyrimidin-7-yl)-3,4-dihydroxytetrahydrofuran-2-yl)methyl)(isopropyl)amino)propyl)-3-(4-(tert-butyl)phenyl)urea]","expression of XEN marker genes (Sall4, Gata4, Sox17)",[2],promote the expression of XEN marker genes
